The target of the assay is T1, human serum albumin (HSA) (Homo sapiens, UniProt P02768).
T1 construct: gene ALB
Kind of assay: intrinsic tryptophan fluorescence quenching titration (water, […] °C; also pH […] phosphate buffer), supported by delayed TMZ hydrolysis. Format: binding.

SMILES strings stand for the structures.

T1 sequence (P02768 25-609): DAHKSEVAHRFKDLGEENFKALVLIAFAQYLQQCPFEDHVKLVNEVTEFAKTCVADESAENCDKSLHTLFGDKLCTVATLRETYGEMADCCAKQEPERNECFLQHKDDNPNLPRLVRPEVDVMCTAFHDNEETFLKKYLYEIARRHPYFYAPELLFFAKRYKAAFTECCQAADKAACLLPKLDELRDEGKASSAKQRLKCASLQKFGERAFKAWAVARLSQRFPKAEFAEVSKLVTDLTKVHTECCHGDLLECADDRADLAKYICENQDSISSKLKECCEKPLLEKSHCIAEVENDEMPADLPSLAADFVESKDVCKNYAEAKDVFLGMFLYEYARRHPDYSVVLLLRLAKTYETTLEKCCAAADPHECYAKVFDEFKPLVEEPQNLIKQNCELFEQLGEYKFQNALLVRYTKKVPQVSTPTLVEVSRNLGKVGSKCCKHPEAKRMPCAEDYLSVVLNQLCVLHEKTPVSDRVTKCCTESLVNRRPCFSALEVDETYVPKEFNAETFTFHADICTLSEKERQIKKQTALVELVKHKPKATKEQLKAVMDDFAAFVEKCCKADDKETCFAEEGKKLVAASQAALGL

For the molecule `Cn1nnc2c(C(N)=O)ncn2c1=O` [TMZ, Temozolomide], the dissociation constant Kd (usually a measure of binding affinity in units of concentration) was around 200 µM.
